Holding throughout (assay type): cell-based
Assay [1] deals with Human cervical cancer cell line HeLa. As to the kind of experiment: Antitumor activity: number of living cells by CFSE-DA staining and WST-8 assay. Conditions: 5, 10, or 20 μM, 4 days at 37° C., MEM containing 5% FBS, CFSE-DA and WST-8, FIGS. 2 and 3. On the procedure: The antitumor effect on cancer cells was confirmed through measurement of the number of living cells using two methods.
Specifically, Compound 1 prepared as described above was added to cancer cells that were to be cultured under the following conditions such that the concentration of Compound 1 was 5, 10, or 20 μM, cancer cells were cultured for 4 days, and then an effect of Compound 1 on cancer cells was confirmed through fluorescence staining of living cells using CFSE-DA (FIG. 2) and WST-8 assays (FIG. 3).
(§1) Cancer cells: Human cervical cancer cell line HeLa
Nutrient sources of culture medium: MEM containing 5% FBS
Culture time after Compound 1 or DMSO was added: 4 days at 37° C.
CFSE: 5- or 6-(N-Succinimidyloxycarbonyl)fluorescein 3′,6′-diacetate
For orientation: Tetrazolium dyes change colour on reduction, which living cells bring about.

Assay [2] has the same test system. Nature of the assay: NO dependency of caspase 3 activation (NO scavenger / NO synthesis inhibitor), flow cytometry. To be noted: FIG. 5. On the procedure:
It was confirmed that the activity of Caspase-3 above was NO-dependent, using two types of methods in which an NO scavenger and an NO synthesis inhibitor were used.
That is, first, the NO scavenger (0.2 mM) or NO synthesis inhibitor (4 mM) described above was added to cancer cells that were to be cultured under the following conditions, and the cancer cells were cultured for 1 hour, Compound 1 prepared as described above was added thereto such that the concentration of Compound 1 was 10 μM, the cancer cells were cultured for 15 hours, flow cytometry was then performed while a caspase 3 substrate and a membrane impermeable DNA stain were in contact therewith, and thus two-color dot plots were created.
as §1
(§2) Nutrient sources of culture medium: MEM (No Glucose) containing 0.1% Galactose and 5% FBS
Culture time after NO scavenger and NO synthesis inhibitor were added: 1 hour at 37° C.
NO scavenger: Carboxy-PTIO (cPTIO)
NO synthesis inhibitor: L-NAME (NO synthatase inhibitor)
Culture time after Compound 1 or DMSO was added: 15 hours
Caspase 3 substrate: NucView (trademark, Biotium) 488
Membrane impermeable DNA stain: DRAQ7 (trademark, BioStatus)
(Flow cytometry measures light scatter and fluorescence of single cells or particles in a stream.)

Assay [3] deals with a plurality of cancer cell lines. As to the kind of experiment: Antitumor effect on a plurality of cancer cell lines.
The test system of assay [4] is Human cervical cancer cell line HeLa. Nature of the assay: Programmed cell death under glucose starvation, WST-8 assay. Conditions: 16 hours at 37° C., MEM with 0.1% Glucose or 0.1% Galactose (No Glucose) and 5% FBS, FIG. 6. On the procedure: It was confirmed that programmed cell death of cancer cells by Compound 1 was facilitated under glucose starvation.
Specifically, the nutrient source of a culture medium used when Compound 1 was applied to cancer cells was set to either glucose (Glc) or galactose (Gal), cancer cells were cultured for 16 hours, and the survival rate of cancer cells was measured using WST-8 assays.
as §1
Culture medium before Compound 1 was added: MEM containing 10% FBS
Culture medium after Compound 1 was added: MEM containing 0.1% Glucose and 5% FBS, or containing 0.1% Galactose and 5% FBS (No Glucose)
Culture time after Compound 1 was added: 16 hours at 37° C.

For assay [5] the test system is unchanged. As to the kind of experiment: Induction of production of NO in cancer cells (DAF-FM DA, flow cytometry). To be noted: 10 μM, 10 hours at 37° C., MEM (No Glucose) containing 0.1% Galactose and 5% FBS, FIG. 1. On the procedure:
The amount of nitric oxide (NO) produced in cancer cells was measured using a nitric oxide detection indicator. Specifically, Compound 1 prepared as described above was added to cancer cells that were to be cultured under the following conditions such that the concentration of Compound 1 was 10 μM, and the cancer cells were cultured for 10 hours, then flow cytometry was performed while the NO detection indicator was in contact therewith, and fluorescence intensity and cell number distribution were measured.
as §1, §2
Culture time after Compound 1 or DMSO was added: 10 hours at 37° C.
Nitric oxide detection indicator: Diaminofluorescein-FM diacetate (DAF-FM DA)

For the compound `O=S(=O)(Nc1cc(C(F)(F)F)ccc1N1CC[C@@H]2CCCC[C@H]2C1)c1ccc(F)cc1` [Compound 1], the “antitumor effect (survival rate of cancer cells)” value in assay [1] is recorded as “antitumor effect of reducing the survival rate of cancer cells”. For the same compound, the “NO dependency of induced programmed cell death” value in assay [2] (10 μM, cPTIO or L-NAME) is reported as “NO-dependent”. Besides, the “ratio of cells with DRAQ7 negative and NucView 488 positive” value in assay [2] (Compound 1 at 10 μM alone, 15 hours, no glucose/0.1% Galactose, control 7.8%) is on record as 36.1%. The “ratio of cells with DRAQ7 negative and NucView 488 positive under the presence of cPTIO” value in assay [2] (Compound 1 at 10 μM, 15 hours, after 1 hour with NO scavenger cPTIO 0.2 mM) turned out to be 13.9%. In addition, in assay [2] (Compound 1 at 10 μM, 15 hours, after 1 hour with NO synthesis inhibitor L-NAME 4 mM), the “ratio of cells with DRAQ7 negative and NucView 488 positive under the presence of L-NAME” value is given as 22.7%. For the same compound, in assay [3], the antitumor effect entry is on record as “exhibited an antitumor effect on a plurality of cancer cell lines”. Further, the “programmed cell death (survival rate) in glucose vs galactose medium” value in assay [4] was “facilitated in a glucose depleted state”. Further, the “production of NO in cells” value in assay [5] was “enhanced”.

For the origin of these results see patent US20200188382A1, “PHARMACEUTICAL COMPOSITION FOR INDUCING PROGRAMMED CELL DEATH IN CANCER CELLS” (KYOTO UNIVERSITY, priority 2016, published 2020).
